The values below come from PMC7245562 (Cell chemical biology, 2020).

One assay addresses ecDHFR.YFP (Escherichia coli, UniProt P0ABQ4, G67S/R12Y/Y100I). Format: cell-based. The following applies: for stabilization of ecDHFR after washout: 48 h post washout; for "Off" kinetics compared with TMP: 1 and 10 μM.
Another assay has as its target T1, recombinant hsDHFR (Homo sapiens, UniProt P00374).
T1 sequence (P00374 1-187): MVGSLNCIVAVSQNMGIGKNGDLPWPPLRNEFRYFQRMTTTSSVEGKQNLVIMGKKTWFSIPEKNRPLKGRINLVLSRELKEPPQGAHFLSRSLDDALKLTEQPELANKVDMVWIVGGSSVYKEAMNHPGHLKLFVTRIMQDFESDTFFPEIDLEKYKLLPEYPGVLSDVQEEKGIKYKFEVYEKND
In words: Human DHFR. The class given is biochemical. The note with it: 1 μM compound.

The target in assay [1] is T2, R12Y/G67S/Y100I ecDHFR fused to yellow fluorescent protein (ecDHFR.YFP) (Escherichia coli, UniProt P0ABQ4, G67S/R12Y/Y100I). Format: cell-based. The following applies: for dose-dependent stabilization of ecDHFR.YFP: dose-response, 24 h; for stabilization of ecDHFR.YFP: 10 μM final concentration, 24 h treatment.
The subject of assay [2] is BW25113 wild-type E. coli. Nature of the assay: Bacterial growth assay, Gram-negative E. coli. The note with it: Escherichia coli, BW25113, read-out: minimal inhibitory concentration [MIC].
Assay [3] has as its target R12Y/M16L/G67S/Y100I ecDHFR.YFP (Escherichia coli, UniProt P0ABQ4, G67S/M16L/R12Y/Y100I). Format: cell-based. The note with it: 24 h, vs control ecDHFR DD.
Assay [4] concerns the target R12Y/G67S/I94L/Y100I ecDHFR.YFP (Escherichia coli, UniProt P0ABQ4, G67S/I94L/R12Y/Y100I). Format: cell-based. The note with it: 24 h, vs control ecDHFR DD.
Assay [5] concerns the target T3, ecDHFR DD firefly luciferase (ecDHFR.FLuc) (Escherichia coli, UniProt P0ABQ4, G67S/R12Y/Y100I). The class given is in vivo, BALB/c mice. The following applies: 1 mg (50 mg/kg) oral gavage, 6 h, mean ± SEM.
Assay [6] deals with R12Y/F31L/G67S/Y100I ecDHFR.YFP (Escherichia coli, UniProt P0ABQ4, F31L/G67S/R12Y/Y100I). Format: cell-based. The following applies: 24 h, vs control ecDHFR DD.
The target in assay [7] is I5F/R12Y/G67S/Y100I ecDHFR.YFP (Escherichia coli, UniProt P0ABQ4, G67S/I5F/R12Y/Y100I). Format: cell-based. The note with it: 24 h, vs control ecDHFR DD.
Assay [8] deals with T3, ecDHFR DD firefly luciferase (ecDHFR.FLuc). Format: in vivo, BALB/c mice. The note with it: 1 mg (50 mg/kg) oral gavage, 6 h, mean ± SEM. This is another data set of the same source.
A further assay deals with Iba1(+) microglia. In words: Iba1. The class given is in vivo, BALB/c mice. The following applies: 1 mg per day for 7 days, oral gavage.
The next assay concerns RN4220 S. aureus. In words: Bacterial growth assay, Gram-positive S. aureus. The class given is cell-based. The following applies: concentrations up to 50 μM.
Assay [9] deals with T2, R12Y/G67S/Y100I ecDHFR fused to yellow fluorescent protein (ecDHFR.YFP). The class given is cell-based. The note with it: 5 μM, 24 h.

≈ marks a conversion by molar mass, not a printed value.

Regarding `Nc1nc(N)c2nc(CNc3ccc(C(=O)N[C@@H](CCC(=O)O)C(=O)O)cc3)cnc2n1` [aminopterin], the “stabilization of ecDHFR after washout” value on ecDHFR.YFP is reported as “continued to stabilize ecDHFR”. Also, the “inhibition of hsDHFR activity” value at recombinant hsDHFR is “completely inhibited”. For the same compound, the “dose-dependent stabilization of ecDHFR.YFP” value in assay [1] is “readily stabilized”.

Regarding `Nc1ncc(C=O)c(N)n1` [2,4-DAP-5C, 2,4-diaminopyrimidine-5-carbaldehyde], the “stabilization of ecDHFR.YFP” value in [1] is recorded as “insufficient to stabilize”.

For the compound `Nc1ccnc(N)n1` [2,4-DAP, 2,4-diaminopyrimidine], the “stabilization of ecDHFR.YFP” value in assay [1] is listed as “insufficient to stabilize”.

Consider `[H]/N=C(\N/C(=N/[H])Nc1ccc(Cl)cc1)NC(C)C` [proguanil], for which the “stabilization of ecDHFR.YFP” value in assay [1] is recorded as “no stabilization capabilities”.

Take `Cc1nc2ccc(CN(C)c3ccc(C(=O)N[C@@H](CCC(=O)O)C(=O)O)s3)cc2c(=O)[nH]1` [raltitrexed]: the “stabilization of ecDHFR.YFP” value in assay [1] was “did not allow for stabilization”.

Turning to `COc1ccc(Cc2cnc(N)nc2N)cc1OC` [diaveridine], the “"Off" kinetics compared with TMP” value on ecDHFR.YFP is reported as “noticeably quicker”. Further, in assay [2], the MIC is around 16.6 µM (≈ 4.32 µg/mL).

For the compound `Nc1nc(N)c2ccccc2n1` [2,4-DAQ, 2,4-diaminoquinazoline], the “effect of Met16 (M16L) mutation on stabilization” value in [3] is “did not significantly disrupt”. Also, the “responsiveness to stabilization, Ile94 (I94L) mutant” value in [4] is “eliminated all responsiveness”. Besides, the “fold change in luminescence after treatment, eye” value (shortened to “fold change in luminescence”) in [5] was 1.6 ± 0.3 fold. Besides, in assay [6], the “responsiveness to stabilization, Phe31 (F31L) mutant” value is on record as “eliminated all responsiveness”. For the same compound, in assay [7], the “responsiveness to stabilization, Ile5 (I5F) mutant” value is on record as “eliminated all responsiveness”. The “fold change in bioluminescent signal, liver” value (“fold change … liver” for short) in assay [8] was 5.3 ± 2.1 fold.

With `COc1ccc(COc2ccc(Cc3cnc(N)nc3N)cc2OC)cc1` [GW2580], in [5], the “fold change in luminescence” value is reported as 8.6 ± 1.7 fold. Also, in the assay on Iba1(+) microglia, the “reduction of Iba1(+) microglia, inner retina” value turned out to be 33% and the “reduction of Iba1(+) microglia, outer retina” value was determined as 32%. Further, in the assay with RN4220 S. aureus (LB broth, endpoint 19-24 h), the MIC is ~ 50 μM.

On to `Nc1nc(N)c2nc(-c3cccc(Cl)c3)c(N)nc2n1` [Epiblastin A], for which the “S. aureus growth inhibition” value in the assay on RN4220 S. aureus is on record as “did not completely inhibit growth”. On recombinant hsDHFR, the “inhibition of hsDHFR activity” value was “intermediately inhibited”.

Turning to `Nc1nc(N)c2nc(-c3ccccc3)c(N)nc2n1` [Triamterene], the “fold change in luminescence” value in assay [5] is 3.1 ± 0.6 fold. Moreover, the “inhibition of hsDHFR activity” value on recombinant hsDHFR is “intermediately inhibited”. The “fold change … liver” value in assay [8] is on record as 1.9 ± 0.2 fold.

As to `C#CCC(Cc1cnc2nc(N)nc(N)c2n1)c1ccc(C(=O)N[C@@H](CCC(=O)O)C(=O)O)cc1` (stereo partly shown) [Pralatrexate], the “fold change in luminescence” value in assay [5] came to 3.5 ± 0.7 fold. On ecDHFR.YFP, the “stabilization of ecDHFR after washout” value was “continued to stabilize ecDHFR”. In addition, the “time of peak ecDHFR.YFP fluorescence” value at ecDHFR.YFP (all concentrations used (0.1, 1, 10 μM)) was 48 h. Besides, the “inhibition of hsDHFR activity” value at recombinant hsDHFR is recorded as “completely inhibited”. For the same compound, the “fold change … liver” value in assay [8] is 7.1 ± 1.3 fold. Besides, the “dose-dependent stabilization of ecDHFR.YFP” value in assay [1] is listed as “readily stabilized”.

As for `Nc1nc2ccccc2c(=O)[nH]1` [2-AQ-4O, 2-amino-3H-quinazolin-4-one], the “stabilization of ecDHFR.YFP” value in assay [1] is on record as “did not allow for stabilization”.

For `Cc1cc(/C=C/c2ccc3cc(N(C)C)ccc3[n+]2C)c(C)n1-c1ccccc1` [pyrvinium pamoate], the “hit follow-up in ARPE-19 cells lacking ecDHFR.YFP” value in [9] is on record as “fluorescent false positives”.

For the compound `COc1cc(C)c(Cc2cnc(N)nc2N)cc1OC` [ormetoprim], the “"Off" kinetics, time after removal” value on ecDHFR.YFP (0.1 μM) was in the range of 2 to 4 h. In addition, the “"Off" kinetics compared with TMP” value at ecDHFR.YFP is listed as “noticeably quicker”. In assay [2], the MIC was around 16.6 µM (≈ 4.55 µg/mL).

For `CC1(C)N=C(N)N=C(N)N1OCCCOc1cc(Cl)c(Cl)cc1Cl` [WR99210], on recombinant hsDHFR, the “inhibition of hsDHFR activity” value was “intermediately inhibited”.

Regarding `Nc1nc2[nH]cc(CCc3ccc(C(=O)N[C@@H](CCC(=O)O)C(=O)O)cc3)c2c(=O)[nH]1` [pemetrexed], in assay [1], the “stabilization of ecDHFR.YFP” value is reported as “did not allow for stabilization”.
